Assay: Observation of haloprogin / 2-octyl cyanoacrylate monomer composition after preparation
Type: physicochemical
Settings: 30 mg haloprogin in 2 mL 2-octyl cyanoacrylate monomer
Procedure: A 2-octyl cyanoacrylate monomer composition is prepared by adding 30 mg of haloprogin, an anti-fungal agent, to 2 mL of 2-octyl cyanoacrylate monomer. The mixture is sealed in a glass vial and stirred. The characteristics of the composition are observed at about one minute after preparation and later at least twenty-four hours after preparation.

For `Clc1cc(Cl)c(OCC#CI)cc1Cl` [haloprogin], the “premature polymerization of the monomer” value (sealed glass vial, about one minute and at least twenty-four hours after preparation) was “does not cause premature polymerization” and the “solubility in the monomer” value (observed at about one minute and at least twenty-four hours after preparation) was “soluble”.
